Source: ChEMBL document CHEMBL4382262, “Structurally Simple, Readily Available Peptidomimetic 1-Benzyl-5-methyl-4-( n-octylamino)pyrimidin-2(1 H)-one Exhibited Efficient Cardioprotection in a Myocardial Ischemia (MI) Mouse Model” (J Med Chem, 2018)
Activity calls are given as the source filed them. The calls are words filed in the database; no cut-off is given here.

Experiments:
[1] = system: Mus musculus; test: Cardioprotective activity in C57BL mouse model of left anterior descending coronary artery ligation-induced myocardial ischemia assessed as reduction in serum LDH levels at 0.3 mg/kg, iv treated for 1 hr after by left anterior descending coronary artery ligation and measured after 24 hrs post LAD; assay type: functional, organism-based
[2] = system: Mus musculus; test: Cardioprotective activity in C57BL mouse model of left anterior descending coronary artery ligation-induced myocardial ischemia assessed as reduction in heart infarct size at 0.3 mg/kg, iv treated 1 hr after left anterior descending coronary artery ligation and measured after 7 days post LAD; assay type: functional, organism-based
[3] = system: Mus musculus; test: Cardioprotective activity in C57BL mouse model of left anterior descending coronary artery ligation-induced myocardial ischemia assessed as survival rate at 0.3 mg/kg, iv treated 1 hr after left anterior descending coronary artery ligation and measured after 7 days post LAD; assay type: functional
[4] = target: T1, Toll-like receptor 4 (Rattus norvegicus) (UniProt Q9QX05); test: Inhibition of TLR4 in Sprague-Dawley rat cardiomyocytes assessed as reduction in hypoxia-induced IRF3 protein expression at 20 uM preincubated for 1 hr followed by hypoxia for 3 hrs by Western blot analysis relative to untreated control; assay type: cell-based
T1 sequence (whole entry): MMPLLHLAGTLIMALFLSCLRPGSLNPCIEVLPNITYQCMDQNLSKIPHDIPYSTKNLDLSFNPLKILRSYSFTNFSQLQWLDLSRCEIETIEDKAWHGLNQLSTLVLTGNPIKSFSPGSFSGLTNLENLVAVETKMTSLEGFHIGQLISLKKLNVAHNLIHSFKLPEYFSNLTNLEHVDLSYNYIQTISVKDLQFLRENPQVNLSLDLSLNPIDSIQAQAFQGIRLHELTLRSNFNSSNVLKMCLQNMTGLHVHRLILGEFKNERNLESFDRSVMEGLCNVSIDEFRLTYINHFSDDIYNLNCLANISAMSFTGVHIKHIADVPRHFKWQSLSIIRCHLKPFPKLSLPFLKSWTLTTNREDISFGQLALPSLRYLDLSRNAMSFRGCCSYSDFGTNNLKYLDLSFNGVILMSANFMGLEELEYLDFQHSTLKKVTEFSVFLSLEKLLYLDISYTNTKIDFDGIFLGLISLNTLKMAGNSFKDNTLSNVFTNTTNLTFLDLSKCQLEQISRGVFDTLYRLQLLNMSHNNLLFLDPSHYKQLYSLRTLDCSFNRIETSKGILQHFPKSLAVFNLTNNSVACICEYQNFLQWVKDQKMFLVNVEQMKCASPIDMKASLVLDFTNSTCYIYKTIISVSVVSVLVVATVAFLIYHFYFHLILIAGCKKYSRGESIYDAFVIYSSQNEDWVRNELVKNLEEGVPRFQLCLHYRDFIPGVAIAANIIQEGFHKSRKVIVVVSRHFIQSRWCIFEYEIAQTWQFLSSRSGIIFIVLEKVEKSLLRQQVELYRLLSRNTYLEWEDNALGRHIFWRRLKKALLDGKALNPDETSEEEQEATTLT

[5] = target: T1, Toll-like receptor 4 (Rattus norvegicus); test: Inhibition of TLR4 in Sprague-Dawley rat cardiomyocytes assessed as reduction in hypoxia-induced creatine kinase levels at 20 uM preincubated for 1 hr followed by hypoxia for 3 hrs by NADP reduction based colorimetric analysis; assay type: cell-based
[6] = system: Mus musculus; test: Cardioprotective activity in C57BL mouse model of left anterior descending coronary artery ligation-induced myocardial ischemia assessed as reduction in heart infarct size at 0.05 to 1 mg/kg, iv pretreated for 1 hr followed by left anterior descending coronary artery ligation; assay type: functional, organism-based
[7] = target: T1, Toll-like receptor 4 (Rattus norvegicus); test: Inhibition of TLR4 in Sprague-Dawley rat cardiomyocytes assessed as reduction in hypoxia-induced creatine kinase levels at 5 uM preincubated for 1 hr followed by hypoxia for 3 hrs by NADP reduction based colorimetric analysis; assay type: cell-based
[8] = target: T1, Toll-like receptor 4 (Rattus norvegicus); test: Inhibition of TLR4 in Sprague-Dawley rat cardiomyocytes assessed as reduction in hypoxia-induced creatine kinase levels at 30 uM preincubated for 1 hr followed by hypoxia for 3 hrs by NADP reduction based colorimetric analysis; assay type: cell-based
[9] = system: Mus musculus; test: Cardioprotective activity in C57BL mouse model of left anterior descending coronary artery ligation-induced myocardial ischemia assessed as reduction in heart infarct size at 0.3 mg/kg, iv treated 1 hr after left anterior descending coronary artery ligation and measured after 24 hrs post LAD; assay type: functional, organism-based
[10] = system: Mus musculus; test: Cardioprotective activity in C57BL mouse model of left anterior descending coronary artery ligation-induced myocardial ischemia assessed as reduction in LDH […] levels at 0.3 mg/kg, iv pretreated for 1 hr followed by left anterior descending coronary artery ligation; assay type: functional, organism-based

Q: What does the source list for `CCCCCCCCNc1nc(=O)n(Cc2ccccc2)cc1C`?
A: Activity [1]: Active; Activity [2]: Active; survival at 0.3 mg/kg [3]: 100%; fold change (FC) [4]: 2.7; inhibition [5]: Active; Activity [6]: Active; inhibition [7]: inactive; inhibition [8]: Active; Activity [9]: inactive; Activity [10]: Active
